Measurements: patent publication US8765779B2, “Tricyclic derivatives and their pharmaceutical use and compositions” (Cephalon, Inc., priority 2009, dated 2014)
Counter-ions that a name gives are not always drawn.

test system: not given; test: not given; conditions: not given

Row | Compound | melting point
1 | CC1(C)NCCc2c1oc1cc(S(=O)(=O)c3ccc(F)c(Cl)c3)ccc21 (as salt: HCl) [Example 18, 7-[(3-chloro-4-fluorophenyl)sulfonyl]-1,1-dimethyl-1,2,3,4-tetrahydro[1]benzofuro[2,3-c]pyridine] | > 200 °C (dec.)
2 | CN(C)C(=O)CC1(C)NCCc2c1oc1cc(S(=O)(=O)c3cccc(F)c3)ccc21 (racemic) (as salt: HCl) [Example 40, 2-{7-[(3-fluorophenyl)sulfonyl]-1-methyl-1,2,3,4-tetrahydro[1]benzofuro[2,3-c]pyridin-1-yl}-N,N-dimethylacetamide] | 220 to 223 °C
3 | CC1(C)CNC2(CCOCC2)c2oc3cc([S+]([O-])c4cccc(F)c4)ccc3c21 (racemic) (as salt: HCl) [Example 47, 7-[(3-fluorophenyl)sulfinyl]-4,4-dimethyl-2′,3,3′,4,5′,6′-hexahydro-2H-spiro[1-benzofuro[2,3-c]pyridine-1,4′-pyran]] | 248 to 253 °C
4 | CC12CCNCC1Oc1cc(S(=O)(=O)c3ncccn3)ccc12 (racemic) (as salt: HCl) [Example 9, 4a-methyl-7-(pyrimidin-2-ylsulfonyl)-1,2,3,4,4a,9a-hexahydro[1]benzofuro[2,3-c]pyridine] | 232 to 234 °C
5 | CC12CCNCC1Oc1cc(S(=O)(=O)c3cccc(F)c3F)ccc12 (stereo not shown) (as salt: HCl) [Example 488] | 202 to 204 °C
6 | COc1cc(OC)cc(S(=O)(=O)c2ccc3c(c2)OC2CNCCC32C)c1 (stereo not shown) (as salt: HCl) [Example 489] | 254 to 255 °C
7 | CC12CCNCC1Oc1cc(S(=O)(=O)c3cccc(F)c3)ccc12 (racemic) (as salt: HCl) [Example 11, 7-[(3-fluorophenyl)sulfonyl]-4a-methyl-1,2,3,4,4a,9a-hexahydro[1]benzofuro[2,3-c]pyridine] | 288 to 290 °C
8 | CNC(=O)c1c(F)cccc1S(=O)(=O)c1ccc2c(c1)OC1CNCCC21 (stereo not shown) (as salt: HCl) [Example 477] | > 200 °C
9 | O=C(COc1cccc(S(=O)(=O)c2ccc3c(c2)OC2CNCCC32)c1)N1CCCC1 (stereo not shown) (as salt: HCl) [Example 564] | 195 to 196 °C
10 | CC(C)C(=O)NCC1(C)NCCc2c1oc1cc(S(=O)(=O)c3cccc(F)c3)ccc21 (stereo not shown) (as salt: HCl) [Example 491, N-[7-(3-Fluoro-benzenesulfonyl)-1-methyl-1,2,3,4-tetrahydro-benzofuro[2,3-c]pyridin-1-ylmethyl]-isobutyramide] | 220 to 225 °C (dec.)
11 | CC(C)Oc1cccc(S(=O)(=O)c2ccc3c4c(oc3c2)C2(CCC2)NCC4)c1 (as salt: HCl) [Example 26, 7-{[3-(propan-2-yloxy)phenyl]sulfonyl}-3,4-dihydro-2H-spiro[1-benzofuro[2,3-c]pyridine-1,1′-cyclobutane]] | > 200 °C (dec.)
12 | CC(C)Oc1cccc(S(=O)(=O)c2ccc3c(c2)OC2CNCCC32C)c1 (single isomer, unassigned) (as salt: HCl) [Example 21, 4a-methyl-7-{[3-(propan-2-yloxy)phenyl]sulfonyl}-1,2,3,4,4a,9a-hexahydro[1]benzofuro[2,3-c]pyridine] | 183 to 184 °C
13 | COc1cc(OC2CCCC2)cc(S(=O)(=O)c2ccc3c(c2)OC2CNCCC32)c1 (stereo not shown) (as salt: HCl) [Example 586] | 239 to 241 °C
14 | CC(C)Oc1cccc(S(=O)(=O)c2ccc3c4c(oc3c2)C(C)(C)NCC4)c1 (as salt: HCl) [Example 15, 1,1-dimethyl-7-{[3-(propan-2-yloxy)phenyl]sulfonyl}-1,2,3,4-tetrahydro[1]benzofuro[2,3-c]pyridine] | 243 to 245 °C
15 | O=S(=O)(c1cccc(OCc2cnccn2)c1)c1ccc2c(c1)OC1CNCCC21 (stereo not shown) (as salt: HCl) [Example 567] | 244 to 245 °C
16 | Cc1c(OCc2cccnc2)cccc1S(=O)(=O)c1ccc2c(c1)OC1CNCCC21 (stereo not shown) (as salt: HCl) [Example 566] | 179 to 182 °C
17 | O=S(=O)(c1cccc(OCC2CCCCO2)c1)c1ccc2c(c1)OC1CNCCC21 (stereo not shown) (as salt: HCl) [Example 553] | 192 to 194 °C

Second part, the molecule after the results:

Row | melting point | Compound
18 | 199 to 201 °C | CCCCCOc1cccc(S(=O)(=O)c2ccc3c(c2)OC2CNCCC32)c1 (stereo not shown) (as salt: HCl) [Example 557]
19 | 250 to 265 °C | O=S(=O)(c1ccc2c3c(oc2c1)C1(CCOCC1)NCC3)c1cccc(F)c1F (as salt: HCl) [Example 475]
20 | 215 to 217 °C | Cc1cc(COc2cccc(S(=O)(=O)c3ccc4c(c3)OC3CNCCC43)c2)no1 (stereo not shown) (as salt: HCl) [Example 565]
21 | 263 to 266 °C | O=S(=O)(c1cccc(OCC(F)F)c1)c1ccc2c(c1)OC1CNCCC21 (stereo not shown) (as salt: HCl) [Example 578]
22 | 259 to 261 °C (dec.) | CC(C)Oc1cccc(S(=O)(=O)c2ccc3c4c(oc3c2)C2(CCOC2)NCC4)c1 (single isomer, unassigned) (as salt: HCl) [Example 32, 7-{[3-(propan-2-yloxy)phenyl]sulfonyl}-3,4,4′,5′-tetrahydro-2H-spiro[1-benzofuro[2,3-c]pyridine-1,3′-furan]]
23 | 203 to 204 °C | O=S(=O)(c1cc(F)cc(OCC2CCOCC2)c1)c1ccc2c(c1)OC1CNCCC21 (stereo not shown) (as salt: HCl) [Example 591]
24 | 200 to 201 °C | N#Cc1cccc(COc2cccc(S(=O)(=O)c3ccc4c(c3)OC3CNCCC43)c2)c1 (stereo not shown) (as salt: HCl) [Example 552]
25 | 248 to 252 °C | CC1(C)CNC(C2CCOCC2)c2oc3cc(S(=O)(=O)c4cccc(F)c4)ccc3c21 (racemic) (as salt: HCl) [Example 45, 7-[(3-fluorophenyl)sulfonyl]-4,4-dimethyl-1-(tetrahydro-2H-pyran-4-yl)-1,2,3,4-tetrahydro[1]benzofuro[2,3-c]pyridine]
26 | 185 to 187 °C | O=S(=O)(c1ccc2c(c1)OC1CNCCC21)c1cccc(OCC2CCOCC2)c1Cl (stereo not shown) (as salt: HCl) [Example 485]
27 | 171 to 172 °C | O=S(=O)(c1cc(F)cc(OCc2ccccc2)c1)c1ccc2c(c1)OC1CNCCC21 (stereo not shown) (as salt: HCl) [Example 484]

molecular target: T1, human 5-HT6 receptor (Homo sapiens, UniProt P50406); test: Human 5-HT6 Receptor Binding Assay ([3H]LSD displacement, scintillation beads); conditions: membranes of CHO-K1 cells with recombinant human 5-HT6, 4 nM [3H]LSD; Table 1, class symbols; read-out: h5-HT6 (Ki)
T1 construct: host or cells: CHO-K1 cells, stably transfected; membranes prepared in house
T1 sequence (P50406 whole entry): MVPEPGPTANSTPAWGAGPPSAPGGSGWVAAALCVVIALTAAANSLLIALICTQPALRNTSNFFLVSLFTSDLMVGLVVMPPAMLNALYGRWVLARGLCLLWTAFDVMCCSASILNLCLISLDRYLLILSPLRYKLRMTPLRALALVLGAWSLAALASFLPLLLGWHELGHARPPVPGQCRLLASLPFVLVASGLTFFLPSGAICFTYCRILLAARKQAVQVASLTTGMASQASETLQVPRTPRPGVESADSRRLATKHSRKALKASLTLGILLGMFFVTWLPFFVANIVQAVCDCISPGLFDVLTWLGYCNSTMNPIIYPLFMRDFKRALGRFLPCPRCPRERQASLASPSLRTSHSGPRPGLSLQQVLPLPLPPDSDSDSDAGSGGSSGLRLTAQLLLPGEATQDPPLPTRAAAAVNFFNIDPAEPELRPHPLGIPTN

Row | Compound | Ki [nM]
28 | O=S(=O)(c1cc(F)cc(OCC(F)(F)F)c1)c1ccc2c(c1)OC1CNCCC21 (stereo not shown) [Example 415] | < 500
29 | O=S(=O)(c1ccc2c(c1)OC1CNCCC21)c1cccc2cccnc12 (stereo not shown) [Example 332] | < 500
30 | O=S(=O)(Nc1ccccc1Cl)c1ccc2c(c1)C1CCNCC1O2 (stereo not shown) [Example 840] | > 1000
31 | O=S(=O)(Oc1ccc2c(c1)C1CCNCC1O2)c1c(Cl)cccc1Cl (stereo not shown) [Example 741] | < 500
32 | Cc1cccc(S(=O)(=O)c2ccc3c(c2)OC2CNCCC32C)n1 (racemic) [Example 6, 4a-methyl-7-[(6-methylpyridin-2-yl)sulfonyl]-1,2,3,4,4a,9a-hexahydro[1]benzofuro[2,3-c]pyridine] | > 1000

Results, then the molecule that gave them:

Row | Ki [nM] | Compound
33 | < 500 | CC(C)Oc1cccc(S(=O)(=O)c2ccc3c4c(oc3c2)C2(CCC2)NCC4)c1 [Example 26, 7-{[3-(propan-2-yloxy)phenyl]sulfonyl}-3,4-dihydro-2H-spiro[1-benzofuro[2,3-c]pyridine-1,1′-cyclobutane]]
34 | > 1000 | O=S(=O)(c1ccc2c(c1)OC1CNCCC21)c1cccc2c1OCCO2 (stereo not shown) [Example 462]
